# Source: US20150132405A1, “SYNERGISTIC COMPOSITIONS OF MONOCHLOROUREA AND MODIFIED MONOCHLOROUREAS” (HERCULES INCORPORATED, priority 2013, published 2015)
# Where two headings read alike, the source gives them in different places.
# Test system: Escherichia coli
# Experiment: Minimal Inhibitory Concentration (MIC), two-fold dilution series in 96 well microplate
# Type: cell-based
# Conditions: for MIC (QA), used alone: first biocide used alone
# Description: While there are various methods known to individuals skilled in the art for measuring levels of antimicrobial activity, in the following examples the endpoint used is known as the Minimal Inhibitory Concentration, or MIC. This is the lowest concentration of a substance or substances which can achieve complete inhibition of growth.
# In order to determine the Minimal Inhibitory Concentration, a two-fold dilution series of the biocide is constructed with the dilutions being made in growth media. The dilutions are made in a 96 well microplate such that each well has a final volume of 280 μl of media and biocide. The first well has, for example, a concentration of 1000 ppm biocide, the second 500 ppm, the third 250 ppm, and so forth, with the 12th and final well in the row having no biocide at all and serving as a positive growth control. After the dilution series is constructed the wells receive an inoculum of microbe suspended in growth media such that the final concentration of microbes in the well is ˜5×10^5 cfu/ml. In these examples the test microbe used is Escherichia coli. The cultures are incubated at an appropriate temperature for 18-24 hours, and the wells scored as positive or negative for growth based on a visual examination for turbid wells.
# [1] = Escherichia coli, second biocide used alone, complete inhibition of growth, 18-24 hours, read-out: MIC (QB), used alone
# [2] = second biocide used alone, complete inhibition of growth, 18-24 hours
# [3] = Escherichia coli, used alone, Table 26
# [4] = complete inhibition of growth, 18-24 hours
molecule,measurement,setting,value
"CC1(C)C(=O)N(Cl)C(=O)N1Br [BCDMH, 1-bromo-3-chloro-5,5-dimethylhydantoin]",MIC,[1],61 µg/mL
"O=[N+]([O-])C(Br)(CO)CO [BNPD, 2-bromo-2-nitropropane-1,3,-diol]","MIC (QB), used alone",[2],24 ppm
"N#CC(Br)(Br)C(N)=O [DBNPA, 2,2-dibromo-3-nitrilopropionamide]",MIC,[1],11 µg/mL
"CNC(=O)N(C)Cl [DMCU, dimethyl monochlorourea]","DMCU MIC (QA), used alone",[3],10 ppm
same,"DMCU MIC (QA), used alone","Escherichia coli, used alone, Table 27",10 ppm
same,"DMCU MIC (QA), used alone","Escherichia coli, used alone, Table 28",10 ppm
same,"MIC (QA), used alone",[4],10 ppm
same,"MIC (QB), used alone",[2],10 ppm
"O=CCCCC=O [GLUT, glutaraldehyde]",MIC,[1],45 µg/mL
same,MIC,"Escherichia coli, used alone, Table 28, read-out: GLUT MIC (QB), used alone",45 µg/mL
"OO [H2O2, hydrogen peroxide]","MIC (QB), used alone",[2],1000 ppm
"N#CSCSC#N [MBT, methylene bisthiocyanate]",MIC,"Escherichia coli, read-out: MIC (QB), used alone",8 µg/mL
"NCl [MCA, monochloramine]","MIC (QB), used alone",[2],47 ppm
"NC(=O)NCl [MCU, monochlorourea]","MIC (QA), used alone",[4],100 ppm
same,"MIC (QB), used alone",[2],100 ppm
"N-alkyl (C12-C16)-N,N-dimethyl benzylalkonium chloride [QAC]","QAC MIC (QB), used alone",[3],27 ppm
same,"MIC (QB), used alone",[2],27 ppm
methyl monochlorourea [MMCU],"MIC (QB), used alone",[2],16 ppm
